Earlier results, collected in patent US20070259951A1, “Compounds, Compositions and Methods” (SMITHKLINE BEECHAM CORPORATION, priority 2003, published 2007).

Test system: A549 cells
Conditions: data provided by National Cancer Institute

First: O=c1[nH]cc(F)c(=O)[nH]1 [5-fluorouracil]
Second: COc1cccc2c1C(=O)c1c(O)c3c(c(O)c1C2=O)C[C@@](O)(C(=O)CO)C[C@@H]3O[C@H]1C[C@H](N)[C@H](O)[C@H](C)O1 [doxorubicin]
The GI50 of the first is 16-fold higher: 1000 nM for the first, 63 nM for the second.

First: NC(=O)NO [hydroxyurea]
Second: CC(=O)O[C@H]1C(=O)[C@@]2(C)[C@H]([C@H](OC(=O)c3ccccc3)[C@]3(O)C[C@H](OC(=O)[C@H](O)[C@@H](NC(=O)c4ccccc4)c4ccccc4)C(C)=C1C3(C)C)[C@]1(OC(C)=O)CO[C@@H]1C[C@@H]2O [paclitaxel]
The GI50 of the first is far higher: 500000 nM for the first, 4 nM for the second.
